Results taken from patent US20250099407A1, “2-AMINO BENZOPHENONE DERIVATIVES FOR TARGETED FERROPTOSIS INDUCTION IN CANCER THERAPY” (INDIAN INSTITUTE OF TECHNOLOGY KANPUR, priority 2023, published 2025).

What was measured:
Assay type in all cases: cell-based
MDA-MB-231 = assay: Cell viability, CellTiter-Glo assay, MDA-MB-231; settings: Homo sapiens; MDA-MB-231, cell viability
Description: (§1) The viability of screened cancer cells was recorded using a luminescence-based CellTiter-Glo® assay for the ATP quantification. The screening concentration of the molecule ranged from 100/10 μM to 45/4.5 nM with an 8-point-3-fold dilution series in DMEM media (>0.1% DMSO as control). Each experiment was conducted in more than two biological replicates with three technical replicates. The error bar is a representation of standard deviation among the technical replicates.
as §1, with “IITK3002” for “the molecule”, “10” for “100/10”, “4.5” for “45/4.5”
(§2) a. […] In parallel, we have also synthesized the bromoacetamide (IITK3002) version of the lead molecules which is slightly more reactive with thiol nucleophiles when compared to chlorooacetamide warheads as depicted in FIG. 13. […] In addition, we also evaluated the molecules' antiproliferative potency against a panel of twelve different cancer phenotypes. […]

RPMI 8226 = assay: Cell viability, CellTiter-Glo assay, RPMI 8226; settings: Homo sapiens; RPMI 8226, cell viability
Description: as §1
as §1, with “IITK3002” for “the molecule”, “10” for “100/10”, “4.5” for “45/4.5”
as §2

Huh-7 cells = assay: Intracellular ROS, H2-DCFDA oxidation assay in Huh-7 cells; settings: Huh-7, 37° C., 30 min; IITK3001 and IITK3002 20 μM, H2O2 100 μM
Description: We used fluorescence imaging-based oxidation of H2-DCFDA by ROS for assessing intracellular oxidative stress. Huh-7 cells were treated at 37° C. for 30 min with IITK3001 and IITK3002 (20 μM), H2O2 (100 μM), ^tertBuOOH (20 μM), NAC (0.5 mM) and 0.1% DMSO as control. Each experiment was conducted in more than two biological replicates with three technical replicates.
b. Effect of Thiols and Ferroptosis Modulators on the Hit Molecules' Antiproliferative Potency: Ferroptosis is directly controlled by the intracellular thiol concentrations in the form of cysteine and glutathione. Several oxidative mechanisms are well-wired in ferroptotic cell death and we set out to investigate the precise molecular mechanism of our lead molecules. Both cysteine and glutathione (GSH) are the enriched thiol-containing small molecule antioxidant system that are essential regulators of redox modulation in cells including ferroptosis. Further, the enzyme glutathione peroxidase 4 (GPX4) is well characterized to specifically quench the lipid peroxide equivalents in cells through the conversion of […] in cells thereby restoring the reduced environment in cells. Therefore, first, we assessed the ability of N-acetylcysteine (NAC) and GSH to suppress our lead molecules antiproliferative activity (FIG. 4a, b). We found a drastic reduction in the molecules' potency with IITK3001 (>1000-fold reduction) and IITK3002 (>500-fold reduction) (FIG. 14a, b). Supporting that, the addition of DL-Buthionine sulfoximine (BSO), an inhibitor of y-glutamylcysteine synthetase (glutathione biosynthesis) combination with our lead molecules potentiated the overall inhibitory capacity (FIG. 14a, b). […] Finally, we assessed the effect of Ferrostain-1 (Fer-1) and Liproxstatin-1 (Lip-1), antioxidants that function by trapping reactive radicals in cells, particularly lipid-peroxide radicals, and preventing the accumulation of lipid peroxides in cells. […] The accumulation of lipid peroxides and overall ROS was also detected using a fluorescence-based H2DCF-DA assay as depicted in FIG. 15. […]

Structure (SMILES)	EC50 (MDA-MB-231) [nM]	EC50 (RPMI 8226) [nM]	intracellular ROS, H2DCF-DA fluorescence intensity (Huh-7 cells)
CN(C(=O)CBr)c1ccccc1C(=O)c1ccccc1 [IITK3002, N-(2-benzoylphenyl)-2-bromo-N-methylacetamide]	26	39	intracellular ROS generation
CN(C(=O)CCl)c1ccccc1C(=O)c1ccccc1 [IITK3001, N-(2-benzoylphenyl)-2-chloro-N-methylacetamide]	184	133	intracellular ROS generation
